# Data: patent publication US20230174484A1, “ANTAGONISTS OF GPR39 PROTEIN” (Oregon Health & Science University, priority 2020, published 2023)
# Where a name gives a salt, the structure may show the parent alone.
# Target: T1, human GPR39 receptor (Homo sapiens, UniProt O43194)
# T1 construct: PC3 Cells, Expressing the Endogenous Human GPR39 Receptor; endogenous in cells; host or cells: PC3 (human prostate adenocarcinoma) cells
# T1 sequence (O43194 1-453): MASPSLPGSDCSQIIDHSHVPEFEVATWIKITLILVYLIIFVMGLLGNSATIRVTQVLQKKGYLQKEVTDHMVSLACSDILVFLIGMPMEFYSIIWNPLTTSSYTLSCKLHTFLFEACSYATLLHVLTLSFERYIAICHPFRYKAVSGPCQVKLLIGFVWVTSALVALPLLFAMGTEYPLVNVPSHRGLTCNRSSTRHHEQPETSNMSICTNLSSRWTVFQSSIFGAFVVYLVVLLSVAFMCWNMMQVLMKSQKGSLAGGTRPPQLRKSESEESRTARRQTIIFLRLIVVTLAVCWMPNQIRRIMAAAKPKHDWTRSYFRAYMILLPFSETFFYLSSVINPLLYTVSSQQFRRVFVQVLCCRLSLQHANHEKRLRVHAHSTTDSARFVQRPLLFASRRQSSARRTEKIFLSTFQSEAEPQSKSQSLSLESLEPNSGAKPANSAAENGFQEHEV
# Assay: Measurement of intracellular calcium response in PC3 cells (FLIPR), antagonism of the C3 agonist response
# Format: cell-based
# Conditions: functional pKi (modified Cheng-Prusoff), inhibition of the C3 (TC-G 1008) response at EC90, 30 μM ZnCl2, read-out: fpKi activity
# Summary of the method: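 Potency was reported as fpKi, converted by modified Cheng-Prusoff from four-parameter IC50 fits against an EC90 C3 agonist challenge. Calcium-6 FLIPR readings used PC3 cells naturally expressing human GPR39, in pH 7.4 HEPES buffer containing 30 μM final ZnCl2. Score bands: +/± <5.2, + 5.2–5.9, ++ 6.0–6.5, +++ 6.6–7.2, ++++ ≥7.3.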
row,SMILES,Ki [µM]
1,"CN(C)C(=O)N1CCN(C(=O)c2ccc(NC(=O)C3CC3)cc2N2CCCC2)C(c2ccccc2)C1 (stereo not drawn) [Example 216, 4-[4-(cyclopropanecarbonylamino)-2-pyrrolidin-1-ylbenzoyl]-N,N-dimethyl-3-phenylpiperazine-1-carboxamide]",0.0631 to 0.251
2,"Cc1nnc(-c2ccc(C(=O)N3CCC(C(F)(F)F)CC3)c(N3CCCC3)c2)[nH]1 [Example 153, [4-(5-methyl-4H-1,2,4-triazol-3-yl)-2-pyrrolidin-1-ylphenyl]-[4-(trifluoromethyl)piperidin-1-yl]methanone]",0.0631 to 0.251
3,"Cc1nnc(-c2ccc(C(=O)N3CCC(F)(F)CC3)c(-n3ccc(C4CC4)n3)c2)[nH]1 [Example 209, [2-(3-cyclopropylpyrazol-1-yl)-4-(5-methyl-4H-1,2,4-triazol-3-yl)phenyl]-(4,4-difluoropiperidin-1-yl)methanone]",≤ 0.0501
4,"O=C(Nc1ccc(C(=O)N2CCC3(CC2)CC3)c(N2CCCC2)c1)C1CC1 [Example 220, N-[4-(6-azaspiro[2.5]octane-6-carbonyl)-3-pyrrolidin-1-ylphenyl]cyclopropanecarboxamide]",0.0631 to 0.251
5,"CN1CCN(C(=O)c2ccc(NC(=O)C3CC3)cc2N2CCC3(COC3)C2)C(c2ccccc2Cl)C1 (racemic) [Example 211, N-[4-[2-(2-chlorophenyl)-4-methylpiperazine-1-carbonyl]-3-(2-oxa-7-azaspiro[3.4]octan-7-yl)phenyl]cyclopropanecarboxamide]",0.0631 to 0.251
6,"O=C(Nc1ccc(C(=O)N2CCN(c3nccc4ccsc34)CC2)c(N2CCCCCC2)c1)C1CC1 [Example 33, N-[3-(azepan-1-yl)-4-(4-thieno[2,3-c]pyridin-7-ylpiperazine-1-carbonyl)phenyl]Cyclopropanecarboxamide]",1.26 to 6.31
7,"CN1CCN(C(=O)c2ccc(NC(=O)C3CC3)cc2N2CCOCC2)C(c2ccccc2)C1 (stereo not drawn) [Example 200, N-[4-(4-methyl-2-phenylpiperazine-1-carbonyl)-3-morpholin-4-ylphenyl]cyclopropanecarboxamide]",1.26 to 6.31
8,"CCCN1CCN(C(=O)c2ccc(NC(N)=O)cc2N2CCCCCC2)CC1 [Example 96, [3-(azepan-1-yl)-4-(4-propylpiperazine-1-carbonyl)phenyl]urea]",1.26 to 6.31
9,"Cc1noc(-c2ccc(C(=O)N3CCC(C(F)(F)F)CC3)c(N3CCCC3)c2)n1 [Example 152, [4-(3-methyl-1,2,4-oxadiazol-5-yl)-2-pyrrolidin-1-ylphenyl]-[4-(trifluoromethyl)piperidin-1-yl]methanone]",0.316 to 1
10,"CCCN1CCN(C(=O)c2ccc(NC(=O)C3CC3)cc2NC2CCCC2)CC1 [Example 20, N-[3-(cyclopentylamino)-4-(4-propylpiperazine-1-carbonyl)phenyl]cyclopropanecarboxamide]",0.316 to 1
11,"O=C(Nc1ccc(C(=O)N2CCS(=O)(=O)CC2)c(-n2cc(C(F)(F)F)cn2)c1)C1CC1 [Example 182, N-[4-(1,1-dioxo-1,4-thiazinane-4-carbonyl)-3-[4-(trifluoromethyl)pyrazolyl]phenyl]cyclopropanecarboxamide]",0.316 to 1
12,"COc1ccc(CN2CCN(C(=O)c3ccc(NC(=O)C4CC4)cc3N3CCCCCC3)CC2)cc1 [Example 30, N-(3-(azepan-1-yl)-4-(4-(4-methoxybenzyl)piperazine-1-carbonyl)phenyl) cyclopropanecarboxamide]",0.316 to 1
13,"CN1CCn2c(cnc2-c2ccc(NC(=O)C3CC3)cc2N2CCCCCC2)C1 [Example 102, N-[3-(azepan-1-yl)-4-{7-methyl-5H,6H,7H,8H-imidazo[1,5-a]pyrazin-3-yl}phenyl]cyclopropanecarboxamide]",0.0631 to 0.251
14,"CNC(=O)N1CCN(C(=O)c2ccc(NC(=O)C3CC3)cc2N2CCCC2)C(c2ccccc2)C1 (stereo not drawn) [Example 217, 4-[4-(cyclopropanecarbonylamino)-2-pyrrolidin-1-ylbenzoyl]-N-methyl-3-phenylpiperazine-1-carboxamide]",0.316 to 1
15,"O=C(Nc1ccc(C(=O)N2CCS(=O)(=O)CC2)c(N2CCC3(CCC3)C2)c1)C1CC1 [Example 65, N-[3-(6-azaspiro[3.4]octan-6-yl)-4-(1,1-dioxo-1,4-thiazinane-4-carbonyl)phenyl]cyclopropanecarboxamide]",≤ 0.0501
16,"CCCN1CCN(C(=O)c2ncc(NC(=O)C3CC3)nc2N2CCCCCC2)CC1 [Example 106, N-[6-(azepan-1-yl)-5-(4-propylpiperazine-1-carbonyl)pyrazin-2-yl]Cyclopropanecarboxamide]",1.26 to 6.31
17,"O=C(Nc1ccc(C(=O)N2CCN(Cc3ccccc3)CC2)c(N2CCCCCC2)c1)C1CC1 [Example 50, N-(3-(azepan-1-yl)-4-(4-benzylpiperazine-1-carbonyl)phenyl)cyclopropanecarboxamide]",0.0631 to 0.251

# Second part, the molecule after the results:
row,Ki [µM],SMILES
1,≤ 0.0501,"CC1CCN(c2cc(NC(=O)C3CC3)ccc2C(=O)N2CCC(C(F)(F)F)CC2)C1 (racemic) [Example 63c, N-[3-(3-methylpyrrolidin-1-yl)-4-[4-(trifluoromethyl)piperidine-1-carbonyl]phenyl]cyclopropanecarboxamide]"
2,0.0631 to 0.251,"Cc1nnc(-c2ccc(C(=O)N3CCN(C)CC3c3ccccc3)c(N3CCCC3)c2)[nH]1 (single isomer, unassigned) [Example 150a, (2R or 2S) (4-methyl-2-phenylpiperazin-1-yl)-[4-(5-methyl-4H-1,2,4-triazol-3-yl)-2-pyrrolidin-1-ylphenyl]methanone]"
3,0.316 to 1,"CC1CC(C)CN(c2cc(NC(=O)C3CC3)ccc2C(=O)N2CCN(C)CC2c2ccccc2)C1 (single isomer, unassigned) [Example 68b, Syn 2R or 2S N-[3-[3,5-dimethylpiperidin-1-yl]-4-(4-methyl-2-phenylpiperazine-1-carbonyl)phenyl] cyclopropanecarboxamide]"
4,≤ 0.0501,"CN1CCN(C(=O)c2ccc(NC(=O)C3CC3)cc2N2CCCC2)C(c2cccs2)C1 (single isomer, unassigned) [Example 86b, N-[4-(4-methyl-2-thiophen-2-ylpiperazine-1-carbonyl)-3-pyrrolidin-1-ylphenyl]cyclopropanecarboxamide]"
5,0.0631 to 0.251,"O=C(Nc1ccc(C(=O)N2CCS(=O)(=O)CC2)c(N2CCCC(C(F)(F)F)C2)c1)C1CC1 (racemic) [Example 185c, N-[4-(1,1-dioxo-1,4-thiazinane-4-carbonyl)-3-[3-(trifluoromethyl)piperidin-1-yl]phenyl]cyclopropanecarboxamide]"
6,0.0631 to 0.251,"CN1CCN(C(=O)c2ccc(NC(=O)C3CC3)cc2N2CCCC2)C(c2ccccc2)C1 (racemic) [Example 62c, N-[4-(4-methyl-2-phenylpiperazine-1-carbonyl)-3-pyrrolidin-1-ylphenyl]Cyclopropanecarboxamide]"
7,0.316 to 1,"CN1CCN(C(=O)c2ccc(NC(=O)C3CC3)cc2N2CCC(C(F)(F)F)C2)C(c2ccccc2)C1 (single isomer, unassigned) [Example 199b, (2S, 3R) or (2R, 3S) or (2R, 3R) or (2S, 3S) N-[4-(4-methyl-2-phenylpiperazine-1-carbonyl)-3-[3-(trifluoromethyl)pyrrolidin-1-yl]phenyl]cyclopropanecarboxamide]"
8,0.0631 to 0.251,"CN1CCN(C(=O)c2ccc(NC(=O)C3CC3)nc2N2CCC(F)(F)C2)C(c2ccccc2)C1 (single isomer, unassigned) [Example 148a, (2R or 2S) N-[6-(3,3-difluoropyrrolidin-1-yl)-5-(4-methyl-2-phenylpiperazine-1-carbonyl)pyridin-2-yl]cyclopropanecarboxamide]"
9,≤ 0.0501,"CN1CCN(C(=O)c2ccc(NC(=O)C3CC3)cc2N2CCC3(CCC3)C2)C(c2ccccc2)C1 (single isomer, unassigned) [Example 66a, N-[3-(6-azaspiro[3.4]octan-6-yl)-4-(4-methyl-2-phenylpiperazine-1-carbonyl)phenyl]cyclopropanecarboxamide]"
10,1.26 to 6.31,"CN1CCN(C(=O)c2ccc(NC(=O)C3CC3)cc2N2CCCC2)C(c2cccs2)C1 (single isomer, unassigned) [Example 86a, N-[4-(4-methyl-2-thiophen-2-ylpiperazine-1-carbonyl)-3-pyrrolidin-1-ylphenyl]cyclopropanecarboxamide]"
11,≤ 0.0501,"O=C(Nc1ccc(C(=O)N2CCS(=O)(=O)CC2)c(N2CCCC(C(F)(F)F)C2)c1)C1CC1 (single isomer, unassigned) [Example 185b, N-[4-(1,1-dioxo-1,4-thiazinane-4-carbonyl)-3-[3R or 3S-(trifluoromethyl)piperidin-1-yl]phenyl]cyclopropanecarboxamide]"
12,0.0631 to 0.251,"CN1CCN(C(=O)c2ccc(NC(=O)C3CC3)cc2N2CCCCC2)C(c2ccccc2)C1 (single isomer, unassigned) [Example 201a, N-[4-(4-methyl-(2R or 2S)-phenylpiperazine-1-carbonyl)-3-piperidin-1-ylphenyl]cyclopropanecarboxamide]"
13,0.0631 to 0.251,"CN1CCN(C(=O)c2ccc(NC(=O)C3CC3)cc2N2CCCC2)C(c2ccccc2)C1 (single isomer, unassigned) [Example 62d, 2R or 2S N-[4-(4-methyl-2-phenylpiperazine-1-carbonyl)-3-pyrrolidin-1-ylphenyl]cyclopropanecarboxamide hydrochloride]"
